Measured values from US10752587B2, “Homobispiperidinyl derivatives as liver X receptor beta agonists, compositions and their use” (Merck Sharp & Dohme Corp., priority 2015, dated 2020).

Assays:
[1] = molecular target: T1, glutathione-S-transferase (GST) tagged LXRalpha LBD (ligand binding domain) (Homo sapiens, UniProt Q13133); assay: LanthaScreen TR-FRET Liver X Receptor Coactivator Assay, co-activator recruitment to LXRalpha LBD; type: biochemical; settings: for Emax: read-out: LXR alpha Activity @ max dose (%); for LXR alpha IP (nM) / EC50: potency (Inflection Point, IP), co-activator recruitment to LXRalpha LBD, in relation to T0901317; for EC50: read-out: LXR alpha IP
T1 construct: purchased Invitrogen pv4655
T1 sequence (Q13133 209-447 limits assumed): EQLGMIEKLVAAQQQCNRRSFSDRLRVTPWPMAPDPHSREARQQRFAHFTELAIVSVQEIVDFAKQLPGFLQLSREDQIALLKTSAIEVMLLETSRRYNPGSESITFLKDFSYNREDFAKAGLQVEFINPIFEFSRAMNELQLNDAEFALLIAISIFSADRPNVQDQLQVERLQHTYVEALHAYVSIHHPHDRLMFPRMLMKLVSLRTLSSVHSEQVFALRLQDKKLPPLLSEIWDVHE
Method: (§1) Potency (Inflection Point, IP) and efficacy (Emax) are evaluated via compound-induced co-activator recruitment to glutathione-S-transferase (GST) tagged LXRbeta and LXRalpha LBD (ligand binding domain) proteins in relation to reference dual agonist compound T0901317 (N-(2,2,2-Trifluoroethyl)-N-[4-[2,2,2-trifluoro-1-hydroxy-1-(trifluoromethyl)ethyl] phenyl] benzenesulfonamide) using the LanthaScreen™ TR-FRET Liver X Receptor Coactivator Assays according to manufacturer's instructions (Invitrogen catalog number pv4658.pps and pv4655). While running the LanthaScreen™ TR-FRET Liver X Receptor Coactivator Assay, LXR alpha-LBD or LXR beta-LBD was added to ligand test compounds followed by addition of a mixture of a fluorescein-labelled coactivator peptide and terbium-conjugated anti-GST antibody. After an incubation period at room temperature, TR-FRET (time-resolved fluorescence resonance energy transfer) was measured using a filter-based instrument capable of TR-FRET, e.g. PerkinElmer Envision.

[2] = molecular target: T2, glutathione-S-transferase (GST) tagged LXRbeta LBD (ligand binding domain) (Homo sapiens, UniProt P55055); assay: LanthaScreen TR-FRET Liver X Receptor Coactivator Assay, co-activator recruitment to LXRbeta LBD; type: biochemical; settings: for Emax: efficacy at max dose, in relation to reference dual agonist T0901317, read-out: LXR beta Activity @ max dose (%); for EC50: potency (Inflection Point, IP), co-activator recruitment to LXRbeta LBD, in relation to T0901317, read-out: LXR beta IP
T2 construct: purchased Invitrogen pv4658.pps
T2 sequence (P55055 222-460 limits assumed): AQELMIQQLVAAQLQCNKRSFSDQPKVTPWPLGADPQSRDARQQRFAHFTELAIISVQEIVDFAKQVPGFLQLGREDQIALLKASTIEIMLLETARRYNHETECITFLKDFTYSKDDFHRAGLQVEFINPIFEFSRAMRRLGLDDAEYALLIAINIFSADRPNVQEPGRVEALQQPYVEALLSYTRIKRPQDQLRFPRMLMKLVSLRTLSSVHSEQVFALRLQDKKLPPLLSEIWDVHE
Method: as §1

[3] = efficacy at max dose, in relation to reference dual agonist T0901317

SMILES | Emax [1, 3] [%] | LXR alpha IP (nM) [1] | Emax [2] [%] | EC50 [2] [nM] | EC50 [1] [nM] | LXR alpha Activity @ max dose (%) [1, 3] [%]
COc1cccc([C@@](O)(C(=O)N2CCC(CC3CCN(c4ccc(C(=O)N(C)C)c(Cl)c4)CC3)CC2)C(F)(F)F)c1 (single isomer, unassigned) [Example 2-34] | 1 | NO IP | 69 | 494 |  | 
CN(C)C(=O)c1ccc(N2CCC(CC3CCN(C(=O)[C@](N)(c4ccccc4)C(F)(F)F)CC3)CC2)cc1Cl (stereo in doubt) [Example 2-101, 4-[4-({1-[2-amino-3,3,3-trifluoro-2-phenyl-propanoyl]piperidin-4-yl}methyl)piperidin-1-yl]-2-chloro-N,N-dimethyl-benzamide] | 21 |  | 106 | 114 | 1770 | 
COc1cccc([C@@](O)(C(=O)N2CCC(CC3CCN(c4ccc(C(=O)N(C)C)c(Cl)c4)CC3)CC2)C(F)(F)F)n1 (stereo in doubt) [Example 2-165, 2-chloro-N,N-dimethyl-4-[4-({1-[3,3,3-trifluoro-2-hydroxy-2-(6-methoxy-pyridin-2-yl)propanoyl]piperidin-4-yl}methyl)piperidin-1-yl]benzamide] | 18 | NO IP | 108 | 2.5 |  | 
CN(C)C(=O)c1ccc(N2CCC(CC3CCN(C(=O)[C@](O)(c4csc5ccccc45)C(F)(F)F)CC3)CC2)cc1Cl (stereo in doubt) [Example 2-169, 4-[4-({1-[2-(1-benzothiophen-3-yl)-3,3,3-trifluoro-2-hydroxy-propanoyl]piperidin-4-yl}methyl)piperidin-1-yl]-2-chloro-N,N-dimethyl-benzamide] | 17 | NO IP | 71 | 11 |  | 
CN(C)C(=O)c1ccc(N2CCC(CC3CCN(C(=O)OC(C)(C)C)CC3)CC2)cc1Cl [Example 1-1, tert-butyl 4-((1-(3-chloro-4-(dimethylcarbamoyl)phenyl)piperidin-4-yl)methyl)piperidine-1-carboxylate] | 22 |  | 63 | 136 | 844 | 
Cc1cc(N2CCC(CC3CCN(C(=O)OC(C)(C)C)CC3)CC2)ccc1C(=O)N(C)C [Example 1-2, tert-butyl 4-({1-[4-(dimethylcarbamoyl)-3-methylphenyl]piperidin-4-yl}methyl)piperidine-1-carboxylate] | 13 | NO IP | 58 | 240 |  | 
CN(C)C(=O)c1ccc(N2CCC(CC3CCN(C(=O)C(C)(C)c4ccccc4)CC3)CC2)cc1Cl [Example 2-1, 2-chloro-N,N-dimethyl-4-(4-((1-(2-methyl-2-phenylpropanoyl)piperidin-4-yl)methyl)piperidin-1-yl)benzamide] | 5 | NO IP | 59 | 157 |  | 
COc1cccc([C@@](O)(C(=O)N2CCC(CC3CCN(c4cnc(C(=O)N(C)C)c(C)c4)CC3)CC2)C(F)(F)F)c1 [Example 2-2, N,N,3-trimethyl-5-[4-({1-[(2R)-3,3,3-trifluoro-2-hydroxy-2-(3-methoxy-phenyl)propanoyl]piperidin-4-yl}methyl)piperidin-1-yl]pyridine-2-carboxamide] | 5 | NO IP | 43 | 155 |  | 
COc1cccc([C@@](O)(C(=O)N2CCC(CC3CCN(c4cnc(C(=O)N(C)C)c(Cl)c4)CC3)CC2)C(F)(F)F)c1 [Example 2-3, 3-chloro-N,N-dimethyl-5-[4-({1-[(2R)-3,3,3-trifluoro-2-hydroxy-2-(3-methoxyphenyl)propanoyl]piperidin-4-yl}methyl)piperidin-1-yl]pyridine-2-carboxamide] | 6 | NO IP | 50 | 26 |  | 
CN(C)C(=O)c1ncc(N2CCC(CC3CCN(C(=O)[C@](O)(c4ccccc4)C(F)(F)F)CC3)CC2)cc1Cl [Example 2-4, 3-chloro-N,N-dimethyl-5-[4-({1-[(2R)-3,3,3-trifluoro-2-hydroxy-2-phenylpropanoyl]piperidin-4-yl}methyl)piperidin-1-yl] pyridine-2-carboxamide] | 24 |  | 80 | 19 | 461 | 
CN(C)C(=O)c1ncc(N2CCC(CC3CCN(C(=O)C(O)(c4cccc(C(F)(F)F)c4)C(F)(F)F)CC3)CC2)cc1Cl (stereo not shown) [Example 2-5, 3-chloro-N,N-dimethyl-5-{4-[(1-{3,3,3-trifluoro-2-hydroxy-2-[3-(trifluoromethyl)phenyl]propanoyl}piperidin-4-yl)methyl]piperidin-1-yl}pyridine-2-carboxamide] | 19 |  | 57 | 29 | 752 | 
CN(C)C(=O)c1ncc(N2CCC(CC3CCN(C(=O)C(O)(c4cccc(Cl)c4)C(F)(F)F)CC3)CC2)cc1Cl (stereo not shown) [Example 2-6, 3-chloro-5-[4-({1-[2-(3-chlorophenyl)-3,3,3-trifluoro-2-hydroxy-propanoyl]piperidin-4-yl}methyl)piperidin-1-yl]-N,N-dimethylpyridine-2-carboxamide] | 26 |  | 60 | 22 | 875 | 
CN(C)C(=O)c1ncc(N2CCC(CC3CCN(C(=O)C(O)(c4cccc(F)c4)C(F)(F)F)CC3)CC2)cc1Cl (stereo not shown) [Example 2-7, 3-chloro-N,N-dimethyl-5-[4-({1-[3,3,3-trifluoro-2-(3-fluorophenyl)-2-hydroxy-propanoyl]piperidin-4-yl}methyl)piperidin-1-yl]pyridine-2-carboxamide] | 30 |  | 80 | 17 | 464 | 
CN(C)C(=O)c1ccc(N2CCC(CC3CCN(C(=O)c4c(F)cccc4F)CC3)CC2)cc1Cl [Example 2-8, 2-chloro-4-[4-({1-[(2,6-difluorophenyl)carbonyl]piperidin-4-yl}methyl)piperidin-1-yl]-N,N-dimethyl-benzamide] | 0 | NO IP | 40 | 352 |  | 
CN(C)C(=O)c1ccc(N2CCC(CC3CCN(C(=O)C4(c5ccccc5)CC4)CC3)CC2)cc1Cl [Example 2-9, 2-chloro-N,N-dimethyl-4-[4-({1-[(1-phenyl-cyclopropyl)carbonyl]piperidin-4-yl}methyl)piperidin-1-yl] benzamide] | 0 | NO IP | 48 | 97 |  | 
CN(C)C(=O)c1ccc(N2CCC(CC3CCN(C(=O)C4(c5ccccc5)CCCC4)CC3)CC2)cc1Cl [Example 2-10, 2-chloro-N,N-dimethyl-4-[4-({1-[(1-phenyl-cyclopentyl)carbonyl]piperidin-4-yl}methyl)piperidin-1-yl] benzamide] | 0 | NO IP | 60 | 50 |  | 
CN(C)C(=O)c1ccc(N2CCC(OC3CCN(C(=O)[C@](O)(c4ccccc4)C(F)(F)F)CC3)CC2)cc1Cl [Example 2-11, 2-chloro-N,N-dimethyl-4-[4-({1-[(2R)-3,3,3-trifluoro-2-hydroxy-2-phenylpropanoyl]piperidin-4-yl}oxy)piperidin-1-yl]benzamide] |  |  | 83 |  | 1110 | 33
